Read-outs that look alike come from different tables or passages of the source.

Series [1] is described as follows: in vitro. As to conditions: African green monkey, CC50 (Vero-E6), half maximal cytotoxic concentration, MTT assay, Vero-E6 cells. A general note: Formazan colour is commonly taken as a measure of viable cells.
The test system of series [2] is MERS-CoV. In words: microbe, parasite or virus in culture. It is filed as cell-based. As to conditions: for antiviral effect on MERS-CoV compared with SARS-CoV-2: equal concentrations of drug, plaque reduction assay. (In general: Plaque reduction counts the foci of infection that form in a cell layer.)
For series [3], the system named is NRC-03-nhCoV. Description: Viral replication mechanism, plaque infectivity reduction assay. Type of series: cell-based, SARS-CoV-2. The protocol: The impact of tested drug on viral replication was determined as previously described. Vero-E6 cells were cultivated in a 6-well plate (10^5 cell/mL) for 24 h at 37 °C. Virus was inoculated directly to the cells and incubated for 1 h at 37 °C. The inocula containing the non-adsorbed viral particles were removed by washing cells three successive times with supplement-free medium. The test compound was added in varying concentrations to infected cells for another 1 h contact time. After removing the inocula containing the tested drug, 3 mL of DMEM supplemented with 2% agarose were added to the cell monolayer. Plates were left to solidify and incubated at 37 °C until the appearance of viral plaques. Cell monolayers were fixed in 10% formalin solution for 1 h and stained with crystal violet. Control wells contained Vero-E6 cells incubated with the virus. Plaques were counted and the percentage reduction in plaque formation was compared to the control wells.

In series [4] the test system is NRC-03-nhCoV. In words: Viral adsorption mechanism, plaque infectivity reduction assay. Type of series: cell-based, SARS-CoV-2. The protocol:
The viral adsorption mechanism was assayed according to a protocol by Zhang and his colleagues with minor modifications. Vero-E6 cells were cultivated in a 6-well plate (10^5 cells/mL) for 24 h at 37 °C. Each tested drug was applied in 200 µL medium without supplements and co-incubated with the cells for 2 h at 4 °C. The inocula containing the non-absorbed drug were removed by washing cells three successive times with supplement-free medium. SARS-CoV-2 virus diluted to 104 PFU/well was co-incubated with the pretreated cells for 1 h, and then 3 mL DMEM supplemented with 2% agarose were added. Plates were left to solidify and then incubated at 37 °C to allow the formation of viral plaques. The plaques were fixed and stained as described above to calculate the percentage reduction in plaque formation compared to control wells, which comprised untreated Vero-E6 cells directly infected with NRC-03-nhCoV.

Series [5] deals with SARS-CoV-2. The settings on record: read-out: IC50 against SARS-CoV-2 (reported); cited from earlier work.
In series [6] the test system is NRC-03-nhCoV. In words: microbe, parasite or virus in culture. It is filed as cell-based, SARS-CoV-2.
Series [7] concerns SARS-CoV-2. Description: Plaque reduction assay, anti-SARS-CoV-2 activity. Type of series: cell-based. The settings on record: read-out: viral inhibition, SARS-CoV-2.
In series [8] the test system is NRC-03-nhCoV. In words: Virucidal mechanism, plaque infectivity reduction assay. Type of series: cell-based, SARS-CoV-2. As to conditions: for virucidal effect: concentration not given. The protocol:
The virucidal mechanism was assayed following a previously described protocol. In a 6-well plate, Vero-E6 cells were cultivated (10^5 cells/mL) for 24 h at 37 °C and 200 µL of serum-free DMEM containing SARS-CoV-2 was added to each sample with promising inhibition. After 1 h incubation, the mixture was diluted 10-fold three times using serum-free medium, which still allowed viral particles to grow on Vero-E6 cells. Next, 100 µL of each dilution were added to the Vero-E6 cell monolayer. After 1 h contact time, a DMEM overlayer was added to the cell monolayer. Plates were left to solidify and incubated at 37 °C to allow the formation of viral plaques. The plaques were fixed and stained as described above to calculate the percentage reduction in plaque formation. This value was compared to control wells comprising cells infected with virus and not pretreated with the tested material.

Where [9] appears, read: Middle East respiratory syndrome-related coronavirus, read-out: viral inhibition, MERS-CoV.
[10] abbreviates: Severe acute respiratory syndrome coronavirus 2, Vero C1008, 72 h, Vero-E6 cells, 72 h, crystal violet, reduction of virus-induced CPE by 50%, read-out: IC50 (NRC-03-nhCoV).
[11] abbreviates: Severe acute respiratory syndrome coronavirus 2, Vero C1008, negative log of the IC50 value against SARS-CoV-2, read-out: pIC50 (converted).
The mark [12] stands for this setting: Severe acute respiratory syndrome coronavirus 2, read-out: Viral Replication, percent inhibition.
The mark [13] stands for this setting: Severe acute respiratory syndrome coronavirus 2, read-out: Viral Adsorption, percent inhibition.
Setting [14] is: Severe acute respiratory syndrome coronavirus 2, read-out: Virucidal, percent inhibition.

A word on the CC50: it is the concentration that lowers cell viability or growth by half. Low values mean greater toxicity to the cells, high ones lower toxicity to the cells. As usually defined, the inhibition is the relative decrease from the control value, in per cent. As for `CC[C@H]1OC(=O)[C@H](C)[C@@H](O[C@H]2C[C@@](C)(OC)[C@@H](O)[C@H](C)O2)[C@H](C)[C@@H](O[C@@H]2O[C@H](C)C[C@H](N(C)C)[C@H]2O)[C@](C)(O)C[C@@H](C)CN(C)[C@H](C)[C@@H](O)[C@]1(C)O` [Azithromycin], in series [1], it took 793000 nM to reach half-maximal cytotoxicity (CC50). Moreover, the inhibition at 5 µM in series [2] (setting [9]) was around 20%; in series [7] (Severe acute respiratory syndrome coronavirus 2, 5 µM (lowest concentration tested)) it was around 80%. Also, the inhibition at 10 µM is around 30% in series [2] (setting [9]) and around 90% in series [7] (Severe acute respiratory syndrome coronavirus 2, 10 µM (highest concentration tested)). In addition, the inhibition at 0.16 µM is 0% in series [3] (Severe acute respiratory syndrome coronavirus 2, 0.16 µM, read-out: Viral Replication, percent inhibition); 0% in series [4] (Severe acute respiratory syndrome coronavirus 2, 0.16 µM, read-out: Viral Adsorption, percent inhibition); 12% in series [8] (Severe acute respiratory syndrome coronavirus 2, 0.16 µM, read-out: Virucidal, percent inhibition). The inhibition at 0.322 µM was 0% in series [3] (Severe acute respiratory syndrome coronavirus 2, 0.322 µM, read-out: Viral Replication, percent inhibition); 2% in series [4] (Severe acute respiratory syndrome coronavirus 2, 0.322 µM, read-out: Viral Adsorption, percent inhibition); 34% in series [8] (Severe acute respiratory syndrome coronavirus 2, 0.322 µM, read-out: Virucidal, percent inhibition). In addition, the inhibition at 0.64 µM in series [3] (Severe acute respiratory syndrome coronavirus 2, 0.64 µM, read-out: Viral Replication, percent inhibition) was determined as 2%; in series [4] (Severe acute respiratory syndrome coronavirus 2, 0.64 µM, read-out: Viral Adsorption, percent inhibition), 27%; in series [8] (Severe acute respiratory syndrome coronavirus 2, 0.64 µM, read-out: Virucidal, percent inhibition), 51%. Besides, the inhibition at 1.3 µM in series [3] (Severe acute respiratory syndrome coronavirus 2, 1.3 µM, read-out: Viral Replication, percent inhibition) is 4%; in series [4] (Severe acute respiratory syndrome coronavirus 2, 1.3 µM, read-out: Viral Adsorption, percent inhibition) it was at most 31%; in series [8] (Severe acute respiratory syndrome coronavirus 2, 1.3 µM, read-out: Virucidal, percent inhibition), 51%. For the same compound, the “inhibitory effect on virus replication” value in series [3] (concentration not given) is recorded as “negligible effect on viral replication”. Besides, the IC50 is 2120 nM in series [5], 320 nM in series [6] (setting [10]) and 324 nM in series [6] (setting [11]). In addition, in series [8], the virucidal effect entry was “up to 51%”.
In series [1], `O=C(Nc1ccc([N+](=O)[O-])cc1Cl)c1cc(Cl)ccc1O` [Niclosamide] gave a CC50 of 205000 nM. Moreover, the “antiviral effect on MERS-CoV compared with SARS-CoV-2” value in series [2] is “equally effective against SARS-CoV-2 and MERS-CoV”. Moreover, the inhibition at 1.302 µM in series [3] (setting [12]) is 23%; in series [4] (setting [13]) it was 0%; in series [8] (setting [14]), 16%. Besides, the values for the inhibition at 2.6 µM in series [3] (setting [12]), in series [4] (setting [13]) and in series [8] (setting [14]) were 55%, 0% and 21%, respectively. Besides, the inhibition at 5.2 µM in series [3] (Severe acute respiratory syndrome coronavirus 2, 5.2 µM, read-out: Viral Replication, percent inhibition) is 68%; in series [4] (setting [13]), 0%; in series [8] (setting [14]), 21%. The inhibition at 10.4 µM in series [3] (Severe acute respiratory syndrome coronavirus 2, 10.4 µM, read-out: Viral Replication, percent inhibition) came to 70%; in series [4] (setting [13]) it was 0%; in series [8] (setting [14]) it was 37%. Further, the “inhibition during the viral adsorption stage” value in series [4] (concentration not given) is listed as “negligible reduction in viral inhibition”. Further, the IC50 in series [6] (setting [10]) was 160 nM; in series [6] (setting [11]) it was 162 nM. Also, the virucidal effect in series [8] came to 37%.
In series [1], `CC(=O)Oc1ccccc1C(=O)Nc1ncc([N+](=O)[O-])s1` [Nitazoxanide] displayed a 50% cytotoxic concentration (CC50) of 665000 nM. Also, the “antiviral effect on MERS-CoV compared with SARS-CoV-2” value in series [2] was “equally effective against SARS-CoV-2 and MERS-CoV”. For the same compound, the “Viral Replication, percent inhibition” value in series [3] (5.2 µM) and in series [3] (10.4 µM) was “Toxic” in each case. Moreover, the inhibition at 1.302 µM in series [3] (setting [12]) came to 35%; in series [4] (setting [13]), 0%; in series [8] (setting [14]) it was 39%. Moreover, the results for the inhibition at 2.6 µM in series [3] (setting [12]), in series [4] (setting [13]) and in series [8] (setting [14]) were 40%, 1% and 61%, respectively. Besides, the inhibition at 5.2 µM came out at 11% in series [4] (setting [13]) and 75% in series [8] (setting [14]). In addition, the inhibition at 10.4 µM is 11% in series [4] (setting [13]) and 78% in series [8] (setting [14]). The IC50 in series [6] (setting [10]) and in series [6] (setting [11]) was 1290 nM in each case.

Values taken from publication PMC7761982, “FDA-Approved Drugs with Potent In Vitro Antiviral Activity against Severe Acute Respiratory Syndrome Coronavirus 2” (Pharmaceuticals, 2020).
